How the values were obtained:
[1] = in vitro liver microsome metabolic stability, human; type: in vitro ADME; details: Human liver microsomes, 37°C
Outline: (§1)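 Test compound at 1 µM final (100 µM working solution diluted 1:100) incubated at 37°C with liver microsomes in pH 7.4 phosphate buffer with NADP/G6P/G6PDH/MgCl2 regenerating system; sampled 0–30 min, LC-MS/MS vs internal standard. T1/2 = 0.693/k from remaining-fraction decay.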

[2] = in vitro liver microsome metabolic stability, rat; type: in vitro ADME; details: Rat liver microsomes, 37°C
Outline: as §1

[3] = in vitro liver microsome metabolic stability, mouse; type: in vitro ADME; details: Mouse liver microsomes, 37°C
Method: Preparation of working solutions for test compounds and standards: An appropriate amount of the compound was accurately weighed and dissolved in a corresponding volume of suitable solvent to prepare 1 mM stock solutions of the test compounds and standards. The stock solutions were then diluted with appropriate solvent to obtain 100 µM working solutions of the test compounds, ensuring that the DMSO content in the working solutions remained below 10%.
The internal standard compound testosterone (or tolbutamide) and its corresponding solvent, internal standard concentration (200 ng/mL), were selected based on the properties of the test compound.
• Solution A: 0.1 mol/L K2HPO4 (2.28 g K2HPO4·3H2O was dissolved in 100 mL of double-distilled water); • Solution B: 0.1 mol/L KH2PO4 (1.36 g KH2PO4 was dissolved in 100 mL of double-distilled water); • 80.2 mL of Solution A and 19.8 mL of Solution B were mixed thoroughly, and the pH was adjusted to 7.4.
37.5 mg of glycine was weighed, dissolved in 100 mL of ultrapure water, and adjusted to pH 8.0 with NaOH.
1.25 mg of glucose-6-phosphate dehydrogenase (400 U/mg) was weighed (the specific amount weighed was calculated based on the activity of the purchased glucose-6-phosphate dehydrogenase), dissolved in 1 mL of glycine buffer to a concentration of 500 U/mL, aliquoted into 20 µL per tube, and stored at -20°C for future use.
7.83 mg of NADP, 0.06 mL of D-glucose-6-phosphate (260 mg/mL), and 10.17 mg of MgCl2·6H2O were precisely weighed.
The mixture was dissolved in 1 mL of pure water. The cofactor ratio composition: NADP 10 mM, D-glucose-6-phosphate 60 mM, MgCl2·6H2O 50 mM.
The reaction system (taking a 500 µL system as an example) was composed of the following solution ratios: 416.5 µL phosphate buffer, 5 µL compound working solution, 25 µL liver microsomes, 3.5 µL glucose-6-phosphate dehydrogenase, and 50 µL cofactor solution. The total incubation volume could be adjusted according to experimental requirements.
416.5 µL of phosphate buffer was taken, 25 µL of liver microsomes, 3.5 µL of glucose-6-phosphate dehydrogenase, and 50 µL of cofactor solution were added, vortexed twice to mix, and preincubated in a 37°C water bath for 5 minutes. Then, 5 µL of the test compound working solution was added, vortexed twice to mix, each time for 2-3 seconds, and placed in a 37°C water bath to initiate the reaction, with two parallel samples set. At 0.5 min, 1 min, 2 min, 5 min, 15 min, and 30 min after the reaction, 50 µL of the mixture was taken and added to centrifuge tubes containing 200 µL of 0°C pre-cooled internal standard working solution to terminate the reaction, vortexed for 1 minute to mix, and centrifuged at 13,000 rpm for 10 minutes in a 4°C pre-cooled high-speed centrifuge. The supernatant was collected for analysis. After the compound was added and vortex-mixed, 50 µL of the mixture was rapidly transferred to a centrifuge tube containing 200 µL of a pre-cooled (0°C) internal standard working solution to terminate the reaction, vortex-mixed for 1 minute, and used as the relative zero-point sample (relative to the standard group). The sample was then placed into a 37°C water bath to initiate the reaction, and timing was started.
The sample analysis of the test compound was performed using the liquid chromatography-tandem mass spectrometry (LCMS/MS) method. The semi-quantitative determination was performed using the ratio of the analyte peak area to the internal standard peak area. The retention times of the analyte and internal standard, chromatogram acquisition, and chromatogram integration were processed using Analyst software.
The in vitro elimination rate constant k of the test compound and the control compound was determined by converting the ratio of the peak area of the test compound to the internal standard into the remaining rate, and T1/2 was then calculated according to the following formula. T1/2 = (Ln2)/(k) = (0.693)/(k) [formula] Table 3. […]

[4] = in vitro liver microsome metabolic stability, beagle dog; type: in vitro ADME; details: Beagle dog liver microsomes, 37°C
Outline: as §1

[5] = molecular target: T1, human CCR6 (Homo sapiens, UniProt P51684); test: human CCR6 calcium flux activity (FLIPR, HEK293 cells stably expressing human CCR6, CCL20 stimulation); type: cell-based; details: for IC50: HEK293 cells stably expressing human CCR6, EC80 human MIP-3 alpha/CCL20, read-out: CCR6 inhibitory activity, IC50; for CCR6 selectivity: ratio of CXCR2 IC50 to CCR6 IC50
T1 construct: expressed in transfected cells; host or cells: HEK293
T1 sequence (P51684 1-374): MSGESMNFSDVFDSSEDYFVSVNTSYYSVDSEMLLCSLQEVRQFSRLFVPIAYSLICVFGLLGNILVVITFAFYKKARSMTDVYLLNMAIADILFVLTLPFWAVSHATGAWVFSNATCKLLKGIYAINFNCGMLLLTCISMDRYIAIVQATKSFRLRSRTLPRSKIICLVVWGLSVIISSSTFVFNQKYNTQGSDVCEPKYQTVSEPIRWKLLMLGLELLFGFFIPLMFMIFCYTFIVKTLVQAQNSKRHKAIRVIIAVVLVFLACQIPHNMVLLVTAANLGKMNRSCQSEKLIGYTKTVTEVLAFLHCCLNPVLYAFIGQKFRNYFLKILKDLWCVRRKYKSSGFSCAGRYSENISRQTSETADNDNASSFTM
Outline: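 Read-out is the RFUMax−RFUMin calcium signal (494/516 nm, 90 s) after EC80 CCL20 addition, fitted four-parameter for IC50. Before agonist, Fluo-4 Direct-loaded cells sat with compound 50 min at 37 °C plus 10 min at room temperature.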

[6] = molecular target: T2, human CXCR2 (Homo sapiens, UniProt P25025); test: human CXCR2 calcium flux activity (FLIPR, HEK293 cells stably expressing human CXCR2, IL-8 stimulation); type: cell-based; details: HEK293 cells stably expressing human CXCR2, EC80 human IL-8; read-out: CXCR2 inhibitory activity, IC50
T2 construct: expressed in transfected cells; host or cells: HEK293
T2 sequence (P25025 1-360): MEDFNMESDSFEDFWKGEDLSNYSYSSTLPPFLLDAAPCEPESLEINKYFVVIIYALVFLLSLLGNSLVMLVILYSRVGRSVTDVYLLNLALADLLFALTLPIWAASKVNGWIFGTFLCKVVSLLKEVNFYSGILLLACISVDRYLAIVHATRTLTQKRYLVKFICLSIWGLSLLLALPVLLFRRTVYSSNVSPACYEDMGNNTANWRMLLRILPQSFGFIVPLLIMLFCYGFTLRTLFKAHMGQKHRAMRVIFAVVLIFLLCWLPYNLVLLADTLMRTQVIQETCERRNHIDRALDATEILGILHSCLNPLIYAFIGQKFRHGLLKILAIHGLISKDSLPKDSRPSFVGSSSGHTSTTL
Method: The activity of the compounds was evaluated using HEK293 cells stably expressing human CXCR2 via the FLIPR platform. A 384-well black cell culture plate (Greiner, 781946) was used, with a seeding density of 20,000 cells/well, and incubated overnight at 37°C in a 5% CO2 incubator. The culture medium in the cell plate wells was removed, and 20 µL of Fluo-4 Direct™ Calcium Assay Buffer (Invitrogen, F10471, Component C), 20 µL of 2× Fluo-4 Direct™ Calcium Assay Reagent (Invitrogen, F10471, Component A) working solution, and 10 µL of 6× test compound working solution were sequentially added to each well. The cell plate was incubated in a 37 °C, 5% CO2 incubator for 50 min, followed by a 10 min incubation at room temperature. Additionally, a 6×EC80 human IL-8 (Sigma, SRP3311) working solution was prepared. After the incubation was completed, 10 µL/well of the 6×EC80 human IL-8 working solution was transferred to the corresponding cell wells using a FLIPR instrument, and the fluorescence signal changes at an excitation wavelength of 494 nm and an emission wavelength of 516 nm were recorded over 130 s. The difference between the maximum fluorescence signal (RFUMax) and the minimum fluorescence signal (RFUMin) was used as the output signal. The compound inhibition rate and the log value of the compound concentration were calculated, and a four-parameter fitting analysis was performed using GraphPad Prism 8 software to obtain the IC50 value of the test compound. Table 1. Inhibitory activity data of compounds against CCR6 and CXCR2

[7] = in vivo pharmacokinetic study in SD rats; details: male, rat, plasma; for bioavailability: 1 mg/kg PO vs 1 mg/kg IV, read-out: Oral bioavailability F (%); for AUC(0-t) / Cmax / half-life: 1 mg/kg
Outline: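 Male SD rats (180-200 g), 3 per route: single fasted oral gavage in 1% Tween 80 or tail-vein IV bolus in 50% PEG400. Orbital blood into EDTA-K2 sampled to 8 h; plasma analysed and PK parameters derived by non-compartmental analysis.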

| Compound | Liver microsome T1-2 (min) Human [1] [min] | Liver microsome T1-2 (min) Rat [2] [min] | Liver microsome T1-2 (min) Mouse [3] [min] | Liver microsome T1-2 (min) Beagle dog [4] [min] | IC50 [5] [nM] | CCR6 selectivity [5] | IC50 [6] [nM] | bioavailability [7] [%] | AUC(0-t) ([7]; IV) [ng·h/mL] | Cmax ([7]; IV) [ng/mL] | AUC(0-t) ([7]; PO) [ng·h/mL] | Cmax ([7]; PO) [ng/mL] | half-life ([7]; PO) [h] | half-life ([7]; IV) [h] |
| --- | --- | --- | --- | --- | --- | --- | --- | --- | --- | --- | --- | --- | --- | --- |
| Cc1cccnc1[C@@H](Nc1c(Nc2ccnc(C(=O)N(C)C)c2O)c(=O)c1=O)[C@]1(C)CCC(F)(F)C1 (single isomer, unassigned) [125D] | 572.07 | 83.07 | 19686.4 | 220.11 | – | – | – | – | – | – | – | – | – | – |
| Cc1cccnc1[C@@H](Nc1c(Nc2ccnc(C(=O)N(C)C)c2O)c(=O)c1=O)[C@@]1(C)CCC(F)(F)C1 [125C] | 343.09 | 32.18 | 550.74 | 222.01 | – | – | – | – | – | – | – | – | – | – |
| Cc1cccnc1[C@H](Nc1c(Nc2ccnc(C(=O)N(C)C)c2O)c(=O)c1=O)C1(C)CCCC1 [compound 018, (R)-3-hydroxy-N,N-dimethyl-4-((2-(((1-methylcyclopentyl)(3-methylpyridin-2-yl)methyl)amino)-3,4-dioxocyclobut-1-en-1-yl)amino)picolinamide] | – | – | – | – | 11 | 8363.5 | 92000 | 49.1 | 1160 | 2240 | 1710 | 920 | 4.3 | – |
| CN(C)C(=O)c1nccc(Nc2c(N[C@@H](c3nc(F)ccc3F)C3(C)CCCC3)c(=O)c2=O)c1O [compound 023, (R)-4-((2-(((3,6-difluoropyridin-2-yl)(1-methylcyclopentyl)methyl)amino)-3,4-dioxocyclobut-1-en-1-yl)amino)-3-hydroxy-N,N-dimethylpicolinamide] | – | – | – | – | 0.9 | 227.0 | 204 | 30.5 | 2020 | 4130 | 616 | 335 | 2.08 | – |
| CN(C)C(=O)c1nccc(Nc2c(N[C@@H](c3nc(Cl)ccc3F)C3(C)CCCC3)c(=O)c2=O)c1O [compound 053, (R)-4-((2-(((6-chloro-3-fluoropyridin-2-yl)(1-methylcyclopentyl)methyl)amino)-3,4-dioxocyclobut-1-en-1-yl)amino)-3-hydroxy-N,N-dimethylpicolinamide] | – | – | – | – | 1.5 | 1163.3 | 1750 | 33.1 | 1800 | 3890 | 596 | 380 | 2.33 | – |
| CN(C)C(=O)c1nccc(Nc2c(N[C@@H](c3nc(CF)ccc3F)C3(C)CCCC3)c(=O)c2=O)c1O [compound 094, (R)-4-((2-(((3-fluoro-6-(fluoromethyl)pyridin-2-yl)(1-methylcyclopentyl)methyl)amino)-3,4-dioxocyclobut-1-en-1-yl)amino)-3-hydroxy-N,N-dimethylpicolinamide] | – | – | – | – | 1.1 | 174.73 | 192 | 22.8 | 1210 | 4460 | 276 | 208 | 2.18 | 0.37 |
| CN(C)C(=O)c1nccc(Nc2c(N[C@@H](c3nc(C(F)F)ccc3F)C3(C)CCCC3)c(=O)c2=O)c1O [compound 109, (R)-4-((2-(((6-(difluoromethyl)-3-fluoropyridin-2-yl)(1-methylcyclopentyl)methyl)amino)-3,4-dioxocyclobut-1-en-1-yl)amino)-3-hydroxy-N,N-dimethylpicolinamide] | – | – | – | – | 2.4 | 55.5 | 133 | 61.8 | 786 | 3140 | 485 | 264 | 2.07 | 0.5 |

Reference: patent EP4703354A1, “COMPOUND AS CCR6 ANTAGONIST, AND PHARMACEUTICAL COMPOSITION AND USE THEREOF” (Wuhan Createrna Science and Technology Co.,Ltd., priority 2023, dated 2024)
